According to patent publication US20230416330A1, “Optimized GIP Peptide Analogues” (Antag Therapeutics ApS, priority 2019, published 2023):
Starred links: 1 amine or outer side, 2 acyl side, 3 side chain; linkers in the order of their positions; H or OH if unused. Non-standard residues stand in square brackets, D forms with d. Residues, ends and D or L forms follow the SMILES beside them. Groups on a side chain read outwards from the residue. *: point of attachment. C18 diacid = O=C(O)CCCCCCCCCCCCCCCCC(=O)*; C16 diacid = O=C(O)CCCCCCCCCCCCCCC(=O)*; γGlu = O=C(O)[C@H](CCC(=O)[*:2])N[*:1]; AEEA = NCCOCCOCC(=O)O; Aib = CC(C)(N)C(=O)O

What was measured:
[1] = Physical stability: fibril formation in Thioflavin T (ThT) assay with agitation; type: physicochemical; conditions: 1 mg/ml, TFA, Phosphate (7.4); 25° C., agitation
Method in brief: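 Peptides at 1, 5, 7.5 or 15 mg/ml in 50 mM sodium phosphate pH 7.4 or in water adjusted to pH 7.4 with NaOH, filtered 0.22 μm, with ThT added. Wells held a 3 mm silica bead under 300 rpm orbital agitation at 25° C. Emission at 486 nm tracked continuously; lag time = 10% of transition above baseline.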

[2] = Solubility by visual inspection of peptide solutions; type: physicochemical; conditions: 1 mg/ml, TFA, Phosphate (7.4)
Method in brief: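 Peptides dissolved at 1, 5, 7.5 or 15 mg/ml in 50 mM sodium phosphate pH 7.4 or water adjusted to pH 7.4 with NaOH, with gentle mixing. Immediate solubility judged visually as a clear, colorless solution.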

| SMILES | Avr lag time (h) [1] | Visual appearance [2] | Avr lag time [1] [h] |
| --- | --- | --- | --- |
| CC[C@H](C)[C@H](NC(=O)[C@H](CCCCN)NC(=O)[C@H](CC(=O)O)NC(=O)[C@H](CC(C)C)NC(=O)C(C)(C)NC(=O)[C@@H](NC(=O)[C@H](CO)NC(=O)[C@H](Cc1ccc(O)cc1)NC(=O)[C@H](CCC(=O)O)NC(=O)[C@H](CO)NC(=O)[C@@H](NC(=O)[C@H](Cc1ccccc1)NC(=O)[C@@H](NC(=O)CNC(=O)[C@@H](N)CCC(=O)O)[C@@H](C)O)[C@@H](C)CC)[C@@H](C)CC)C(=O)N[C@@H](CCCCNC(=O)COCCOCCNC(=O)COCCOCCNC(=O)CC[C@H](NC(=O)CCCCCCCCCCCCCCCCC(=O)O)C(=O)O)C(=O)N[C@@H](CCC(N)=O)C(=O)N[C@@H](CCC(N)=O)C(=O)N[C@@H](CC(=O)O)C(=O)N[C@@H](Cc1ccccc1)C(=O)N[C@H](C(=O)N[C@@H](CCC(=O)O)C(=O)N[C@@H](Cc1c[nH]c2ccccc12)C(=O)N[C@@H](CC(C)C)C(=O)N[C@@H](CC(C)C)C(=O)N[C@@H](C)C(=O)N[C@@H](CCC(N)=O)C(=O)N[C@@H](CCCCN)C(=O)N1CCC[C@H]1C(=O)N[C@@H](CO)C(=O)N[C@@H](CO)C(=O)NCC(=O)N[C@@H](C)C(=O)N1CCC[C@H]1C(=O)N1CCC[C@H]1C(=O)N1CCC[C@H]1C(=O)N[C@@H](CO)C(=O)O)C(C)C [AT712] (H-EGTFISEYSI[Aib]LDKIK([AEEA-AEEA-γGlu-C18 diacid])QQDFVEWLLAQKPSSGAPPPS-OH; N-terminus assumed) | fnd (Fnd = fibrils not detected within experiment time (96 hours) with agitation.) | Clear | – |
| CC[C@H](C)[C@H](NC(=O)[C@H](CO)NC(=O)[C@H](Cc1ccc(O)cc1)NC(=O)[C@H](CC(=O)O)NC(=O)[C@H](CO)NC(=O)[C@@H](NC(=O)[C@H](Cc1ccccc1)NC(=O)[C@@H](NC(=O)CNC(=O)[C@@H](N)CCC(=O)O)[C@@H](C)O)[C@@H](C)CC)C(=O)N[C@@H](C)C(=O)N[C@@H](CCSC)C(=O)N[C@@H](CC(=O)O)C(=O)N[C@@H](CCCCN)C(=O)N[C@H](C(=O)N[C@@H](CCCCNC(=O)CCCCCCCCCCCCCCC(=O)O)C(=O)N[C@@H](CCC(N)=O)C(=O)N[C@@H](CCC(N)=O)C(=O)N[C@@H](CC(=O)O)C(=O)N[C@@H](Cc1ccccc1)C(=O)N[C@H](C(=O)N[C@@H](CC(N)=O)C(=O)N[C@@H](Cc1c[nH]c2ccccc12)C(=O)N[C@@H](CC(C)C)C(=O)N[C@@H](CC(C)C)C(=O)N[C@@H](C)C(=O)N[C@@H](CCC(N)=O)C(=O)N[C@@H](CCCCN)C(=O)O)C(C)C)[C@@H](C)CC [AT719] (H-EGTFISDYSIAMDKIK(C16 diacid)QQDFVNWLLAQK-OH; N-terminus assumed) | – | Clear | <8 |
